Test results: patent publication US10398676B2, “Use of alpha-hydroxy carbonyl compounds as reducing agents” (Morvus Technology Ltd, priority 2005, dated 2019)
Marks after values point to notes of the source that are not given here.

Columns and labels:
[1] = DHA reduction of prodrugs and nitro compounds, HPLC initial rate (Examples 5 and 6); assay type: physicochemical; conditions: 100 μM compound, 10 mM DHA, 37° C.
Method: The assay mixture contained the compound under test (100 μM) and DHA (10 mM) in a final reaction volume of 1 mL of sodium phosphate buffer (of the required pH). The reaction was started by addition of DHA and the mixture is incubated at 37° C.

[2] = Reduction of tretazicar by α-hydroxycarbonyl compounds, HPLC initial rate (Example 8); assay type: physicochemical; conditions: 10 mM test compound, 100 μM tretazicar, 0.1 M sodium bicarbonate buffer; for Initial Rate of tretazicar reduction, pH 9: pH 9, 37° C.; for Initial Rate of tretazicar reduction, pH 10: pH 10, 37° C.
Method: (§1) The assay was started by addition of 100 μL of 100 mM test compound (compound of formula I) in water to a mixture of tretazicar (100 μM) in 0.1 M sodium bicarbonate buffer, pH 9 or pH 10, to give a final volume of 1 mL. The mixture was incubated at 37° C. and aliquots (10 μL) were taken every 6 min and assayed immediately by HPLC [Partisil 10 SCX (4.2×150 mm) (Whatman, Maidstone, Kent, U.K.] eluted isocratically with 0.13 M sodium phosphate (pH 5) at 1.5 ml/min). The concentration of tretazicar was determined in each sample by reference of the corresponding peak area with an external standard, quantified by absorbance at 325 nm. Initial rates were calculated by curve fitting (FigP, Biosoft, Cambridge, U.K.). Reduction products were identified by retention time relative to an authentic standard.

[3] = Reduction of NADP+ by α-hydroxycarbonyl compounds (Example 7); assay type: physicochemical; conditions: 1 mM test compound, 200 μM NADP+, pH 10 (1 mM NaHCO3 buffer), over 2 minutes
Method: A 10 μL aliquot of test compound (at a concentration of 100 mM in water) is added to a 200 μM NADP^+ aqueous solution (approximately 990 μL), buffered to pH 10 (1 mM NaHCO3 buffer). The final concentration of the test compound in the assay solution was 1 mM. Reduction of NADP^+ was then monitored by measuring the increase, over the course of 2 minutes, of absorption at 350 nm on a spectrophotometer. Initial rates were recorded as the change in A350 per minute.

[4] = DHA reduction of prodrugs and nitro compounds, HPLC initial rate (Examples 5 and 6); assay type: physicochemical; conditions: 100 μM compound, 1 mM DHA employed (instead of 10 mM DHA), 37° C.
[5] = bioactivated versus non-activated; cited from earlier work
[6] = system: DNA; conditions: cited from earlier work
[7] = humans, phase I; cited from earlier work
[8] = Chemical activation of tretazicar by DHA in bicarbonate buffer (Example 1); assay type: physicochemical; conditions: 10 mM DHA, 100 μM tretazicar, 0.1M sodium bicarbonate buffer, 1 ml
Method: as §1, with “DHA” for “test compound (compound of formula I)”, “0.1M” for “0.1 M”, “pH10,” for “pH 10,”, “ml.” for “mL.”, “(42×150” for “(4.2×150”, “mL/min).” for “ml/min).”

[9] = system: Chinese Hamster V79 cells; assay: Survival of V79 cells, colony forming ability (FIG. 7); assay type: cell-based; conditions: 10 or 100 μM E09 with 10 mM DHA, 2 hours, pH 7.5, 37° C.
Method: The survival of V79 cells was determined using the following method: • Volumes (1 mL, 2×10^5 cells/mL) of V79 cells in 10 mM phosphate buffer (pH 7.5) containing 140 mM NaCl were incubated at 37° C. and then reagents (as indicated above, at the concentrations stipulated) were added (except for the control experiment). After a 2 hour incubation, the cells were harvested by centrifugation, diluted out serially (4×10-fold) and the cells plated into growth medium and assayed for their colony forming ability after growth for 1 week in a humidified 5% CO2 atmosphere.

Compound	INITIAL RATE, 0.1 M PO4, pH7.5 [1]	INITIAL RATE, 0.1 M PO4, pH8 [1]	Initial Rate, pH 8 [1]	Initial Rate, pH 9 [1]	Initial Rate, pH 10 [1]	Initial Rate of tretazicar reduction, pH 9 [2]	Initial Rate of tretazicar reduction, pH 10 [2]	Rate of NADP+ reduction [3]	other results
COCC(O)Cn1ccnc1[N+](=O)[O-] (stereo not shown) [Misonidazole]	0.221 nmoles/min/mL	1.922 nmoles/min/mL	1.922 nmoles/min/mL	1.851 nmoles/min/mL	3.180 nmoles/min/mL	–	–	–	–
O=[N+]([O-])c1nccn1CC(O)CN1CC1 (stereo not shown) [RSU-1069/RB-1645, 1-(1-aziridinyl)-3-(2-nitro-1-imidazolyl)-2-propanol]	<0.01 nmoles/min/mL	2.57 nmoles/min/mL	–	–	–	–	–	–	–
O=CC(O)CO (racemic) [D,L-Glyceraldehyde]	–	–	–	–	–	0.53 nmoles/min/mL	0.62 nmoles/min/mL	0.015 change in A350 per minute	–
CC(=O)C(C)O (stereo not shown) [3-hydroxy-2-butanone]	–	–	–	–	–	0.034 nmoles/min/mL	0.184 nmoles/min/mL	–	–
O=C(O)c1cc([N+](=O)[O-])c(Cl)c([N+](=O)[O-])c1 [4-chloro-3,5-dinitrobenzoic acid]	–	–	0.195 nmoles/min/mL	1.293 nmoles/min/mL	1.727 nmoles/min/mL	–	–	–	Initial Rate, pH 10.6 [1]: 2.442 nmoles/min/mL
Glycolaldehyde [Glycolaldehyde dimer]	–	–	–	–	–	0.18 nmoles/min/mL	0.14 nmoles/min/mL	0.029 change in A350 per minute	–
Cc1cc(Cl)c([N+](=O)[O-])cc1[N+](=O)[O-] [5-chloro-2,4-dinitrotoluene]	–	–	0.132 nmoles/min/mL	0.499 nmoles/min/mL	0.690 nmoles/min/mL	–	–	–	Initial Rate, pH 10.6 [1]: 1.703 nmoles/min/mL
O=[N+]([O-])c1ccc(CO)cc1 [4-nitrobenzyl alcohol]	–	–	< 0.01 nmoles/min/mL	< 0.01 nmoles/min/mL	0.105 nmoles/min/mL	–	–	–	Initial Rate, pH 10.6 [1]: 0.087 nmoles/min/mL
Cc1ncc([N+](=O)[O-])n1CCO [Metronidazole, 2-methyl-5-nitro-1H-imidazole-1-ethanol]	0.131 nmoles/min/mL	0.369 nmoles/min/mL	0.369 nmoles/min/mL	0.890 nmoles/min/mL	1.239 nmoles/min/mL	–	–	–	Initial Rate, pH 10.6 [1]: 0.807 nmoles/min/mL
Nc1n[n+]([O-])c2ccccc2[n+]1[O-] [Tirapazamine, 3-amino-1,2,4-benzotriazine-1,4-dioxide]	0.523 nmoles/min/mL	0.512 nmoles/min/mL	0.512 nmoles/min/mL	3.503 nmoles/min/mL	4.209 nmoles/min/mL	–	–	–	Initial Rate, pH 7.5 [1]: 0.523 nmoles/min/mL; Initial Rate, pH 8.5 [1]: 0.639 nmoles/min/mL
O=C(CO)[C@H](O)[C@@H](O)CO [L-Xylulose]	–	–	–	–	–	< 0.01 nmoles/min/mL	0.28 nmoles/min/mL	0.003 change in A350 per minute	–
NC(=O)N/N=C/c1ccc([N+](=O)[O-])o1 [Nitrofurazone, 2-[(5-nitro-2-furanyl)methylene]hydrazinecarboxamide]	0.177 nmoles/min/mL	0.203 nmoles/min/mL	0.203 nmoles/min/mL	2.390 nmoles/min/mL	3.789 nmoles/min/mL	–	–	–	Initial Rate, pH 7.5 [1]: 0.177 nmoles/min/mL; Initial Rate, pH 8.5 [1]: 0.260 nmoles/min/mL
CO[C@@]12[C@H](COC(N)=O)C3=C(C(=O)C(C)=C(N)C3=O)N1C[C@@H]1N[C@@H]12 [Mitomycin C]	–	–	–	Too fast to measure	–	–	–	–	INITIAL RATE, 0.1 M PO4, pH8, 1 mM DHA ([4]; pH8): 0.052^a nmoles/min/mL; Initial Rate, pH 8, 1 mM DHA ([4]; pH8): 0.052 nmoles/min/mL; Initial Rate, pH 8.5, 1 mM DHA ([4]; pH 8.5): 0.103 nmoles/min/mL; INITIAL RATE, pH7.5 column, (PBS) ([1]; PBS): 1.524 (PBS) nmoles/min/mL; Initial Rate, pH 7 ([1]; pH 7): 1.019 nmoles/min/mL
O=C(CO)CO [Dihydroxyacetone (dimer), 1,3-dihydroxy-2-propanone]	–	–	–	–	–	0.92 nmoles/min/mL	0.69 nmoles/min/mL	0.063 change in A350 per minute	–
NC(=O)c1cc(N2CC2)c([N+](=O)[O-])cc1[N+](=O)[O-] [Tretazicar, 5-(aziridin-1-yl)-2,4-dinitrobenzamide]	<0.01 nmoles/min/mL	0.158 nmoles/min/mL	0.158 nmoles/min/mL	0.933 nmoles/min/mL	1.248 nmoles/min/mL	–	–	–	dose modification resulting from bioactivation (increase in cytotoxicity) [5]: up to 100,000 fold; increase in the amount of DNA-bound drug ([6]; Walker cells compared to cells which cannot reduce tretazicar (Friedlos et al, 1992)): 10 fold; interstrand crosslinks as share of total lesions / total DNA reactions ([6]; literature values (Friedlos et al, 1992; Knox et al, 1986)): up to 70%; MTD [7]: 37.5 mg/m^2; dose safely administered without any significant toxicity [7]: up to 24 mg/m^2; rate of tretazicar reduction by DHA at pH 9 ([8]; pH 9, 37° C.): 0.92 nmol/min; rate of tretazicar reduction by DHA at pH 10 ([8]; pH 10, 37° C.): 0.69 nmol/min; Initial Rate, pH 10.6 [1]: 5.801 nmoles/min/mL
O=CC(O)C(O)CO (stereo not drawn) [D(−)-Erthrose]	–	–	–	–	–	< 0.01 nmoles/min/mL	0.28 nmoles/min/mL	0.004 change in A350 per minute	–
Hydroxyacetone [Hydroxyacetone (acetol)]	–	–	–	–	–	–	–	0.003 change in A350 per minute	–
Cn1c(/C=C/CO)c(CO)c2c1C(=O)C=C(N1CC1)C2=O [E09, 3-[5-aziridinyl-4,7-dioxo-3-hydroxymethyl-1-methyl-1H-indol-2-yl]-prop-β-ene-α-ol]	0.272 nmoles/min/mL	0.605 nmoles/min/mL	–	–	–	–	–	–	cytotoxic effect (percentage survival of V79 cells) on addition of DHA [9]: greatly enhanced
